Measurements reported in patent publication US6414014B1 (Bristol-Myers Squibb Company, priority 1992, dated 2002).

What was measured:
[1] = Hypersensitivity reactions (HSR) in the randomized taxol study; assay type: in vivo, patients
Experimental: Patients with platinum pretreated recurrent ovarian cancer were randomized to a 135 or 175 mg/m^2 dose arm, administered as a 3-hour or 24-hour IV infusion, which was repeated every three weeks. Responses were evaluated every two cycles.
A nurse remained with each patient for the first hour of each infusion. Temperature, pulse, blood pressure, and respiration were taken preinfusion, every 15 minutes for the first hour, every thirty minutes for the next 2 hours, hourly for the next 4 hours, and every other hour until the end of the infusion (for patients receiving the 24-hour infusion). Other observations were also documents, such as rash/redness of the skin, hives, vomiting, nausea, and any other symptoms including neuropathy and skin rashes.

[2] = in vivo
Experimental: Patients with platinum pretreated recurrent ovarian cancer were randomized to a 135 or 175 mg/m^2 dose arm, administered as a 3-hour or 24-hour IV infusion, which was repeated every three weeks. Responses were evaluated every two cycles. All four treatment groups were matched for age, performance status, previous treatments, and time from last platinum therapy.
All rechallenge patients received a prolonged 24-hour infusion, even if the hypersensitivity reaction occurred during a 3-hour infusion. Dosage reductions in subsequent treatment courses were mandated for all patients having (1) a granulocyte count of less than 500 cells/cmm, (2) a platelet count of less than 50,000 cells/cmm for seven days or more, (3) febrile neutropenia, (4) infection, (5) hemmorage, (6) mucositis with vesiculation and/or ulcers, or (7) vomiting appearing despite anti-emitic premedication.

[3] = TOTAL, all four arms, 528 courses analyzed
[4] = arm 135/3 (mg/m^2/infusion hours), 132 courses analyzed
[5] = arm 135/24 (mg/m^2/infusion hours), 141 courses analyzed
[6] = arm 175/3 (mg/m^2/infusion hours), 92 courses analyzed
[7] = arm 175/4 (mg/m^2/infusion hours), 163 courses analyzed

## CC(=O)O[C@H]1C(=O)[C@@]2(C)[C@H]([C@H](OC(=O)c3ccccc3)[C@]3(O)C[C@H](OC(=O)[C@H](O)[C@@H](NC(=O)c4ccccc4)c4ccccc4)C(C)=C1C3(C)C)[C@]1(OC(C)=O)CO[C@@H]1C[C@@H]2O [taxol]
[1]; 2 of 157 patients
  hypersensitivity reactions which required acute therapeutic intervention: 1%
[1]; 24-hour arm, course 2 at dose reduced by 20%, less than 1 ml infused
  severe hypersensitivity reaction in one patient: tachychardia and shortness of breath
[1]; 57/157, all arms
  patients exhibiting some type of hypersensitivity reaction: 35%
[1]; TOTAL, all four arms, 157 patients analyzed
  Patients reporting a HSR: 57 (36) n (%)
[1]; [3]
  Courses with a reported HSR: 136 (26) n (%)
  Type of HSR Per Course: Arrhytheria: 1 n (%)
  Type of HSR Per Course: Chest pain: 1 n (%)
  Type of HSR Per Course: Dyspriea: 5 n (%)
  Type of HSR Per Course: Ederma face: 2 n (%)
  Type of HSR Per Course: Eye disorder: 2 n (%)
  Type of HSR Per Course: Flushing: 103 n (%)
  Type of HSR Per Course: Headache: 1 n (%)
  Type of HSR Per Course: Hypertension: 1 n (%)
  Type of HSR Per Course: Hypotension: 13 n (%)
  Type of HSR Per Course: Nausea/Vomiting: 1 n (%)
  Type of HSR Per Course: Pruritis: 2 n (%)
  Type of HSR Per Course: Rash: 21 n (%)
  Type of HSR Per Course: Tachychardia: 1 n (%)
[1]; arm 135/3 (mg/m^2/infusion hours), 39 patients analyzed
  Patients reporting a HSR: 11 (28) n (%)
[1]; [4]
  Courses with a reported HSR: 23 (17) n (%)
  Type of HSR Per Course: Dyspriea: 2 n (%)
  Type of HSR Per Course: Eye disorder: 2 n (%)
  Type of HSR Per Course: Flushing: 15 n (%)
  Type of HSR Per Course: Hypotension: 1 n (%)
  Type of HSR Per Course: Pruritis: 2 n (%)
  Type of HSR Per Course: Rash: 6 n (%)
[1]; arm 135/24 (mg/m^2/infusion hours), 44 patients analyzed
  Patients reporting a HSR: 18 (41) n (%)
[1]; [5]
  Courses with a reported HSR: 44 (31) n (%)
  Type of HSR Per Course: Chest pain: 1 n (%)
  Type of HSR Per Course: Dyspriea: 3 n (%)
  Type of HSR Per Course: Flushing: 40 n (%)
  Type of HSR Per Course: Headache: 1 n (%)
  Type of HSR Per Course: Hypotension: 1 n (%)
  Type of HSR Per Course: Nausea/Vomiting: 1 n (%)
  Type of HSR Per Course: Rash: 6 n (%)
  Type of HSR Per Course: Tachychardia: 1 n (%)
[1]; arm 175/3 (mg/m^2/infusion hours), 29 patients analyzed
  Patients reporting a HSR: 12 (41) n (%)
[1]; [6]
  Courses with a reported HSR: 23 (25) n (%)
  Type of HSR Per Course: Ederma face: 1 n (%)
  Type of HSR Per Course: Flushing: 16 n (%)
  Type of HSR Per Course: Hypotension: 1 n (%)
  Type of HSR Per Course: Rash: 6 n (%)
[1]; arm 175/4 (mg/m^2/infusion hours), 45 patients analyzed
  Patients reporting a HSR: 6 (36) n (%)
[1]; [7]
  Courses with a reported HSR: 46 (28) n (%)
  Type of HSR Per Course: Arrhytheria: 1 n (%)
  Type of HSR Per Course: Ederma face: 1 n (%)
  Type of HSR Per Course: Flushing: 32 n (%)
  Type of HSR Per Course: Hypertension: 1 n (%)
  Type of HSR Per Course: Hypotension: 10 n (%)
  Type of HSR Per Course: Rash: 3 n (%)
[2]; female, human, 9 weeks
  patients who required a dose reduction: 17%
[2]
  dose reduction required, long term infusion arms versus short term infusion arms: more frequently
